# Assay results reported in article PMC9687610, “Adenosine-Mimicking Derivatives of 3-Aminopyrazine-2-Carboxamide: Towards Inhibitors of Prolyl-tRNA Synthetase with Antimycobacterial Activity” (Biomolecules, 2022).
# Like-named read-outs stand apart in the source and are kept apart here.
# Legend:
# [1] = system: Staphylococcus epidermidis CCM 4418 (ATCC 12228); assay: Antibacterial microdilution broth (EUCAST), SE; type: cell-based; conditions: read after 24 h, read-out: SE MIC
# [2] = system: Escherichia coli CCM 3954 (ATCC 25922); assay: Antibacterial microdilution broth (EUCAST), EC; type: cell-based; conditions: Escherichia coli; read after 24 h; read-out: EC MIC
# [3] = system: Candida krusei CCM 8271 (ATCC 6258); assay: Antifungal microdilution broth (EUCAST), CK; type: cell-based; conditions: Pichia kudriavzevii; read after 24 h; read-out: CK MIC
# [4] = system: Lichtheimia corymbifera CCM 8077; assay: Antifungal microdilution broth (EUCAST), LC; type: cell-based; conditions: Lichtheimia corymbifera, CCM8077; read after 24 h; read-out: LC MIC
# [5] = system: Pseudomonas aeruginosa CCM 3955 (ATCC 27853); assay: Antibacterial microdilution broth (EUCAST), PA; type: cell-based; conditions: Pseudomonas aeruginosa; read after 24 h; read-out: PA MIC
# [6] = system: Aspergillus fumigatus ATCC 204305; assay: Antifungal microdilution broth (EUCAST), AF; type: cell-based; conditions: Aspergillus fumigatus, ATCC204305; read after 24 h; read-out: AF MIC
# [7] = system: Candida parapsilosis CCM 8260 (ATCC 22019); assay: Antifungal microdilution broth (EUCAST), CP; type: cell-based; conditions: Lodderomyces parapsilosis; read after 24 h; read-out: CP MIC
# [8] = system: Klebsiella pneumoniae CCM 4415 (ATCC 10031); assay: Antibacterial microdilution broth (EUCAST), KP; conditions: read after 24 h
# [9] = system: Staphylococcus aureus subsp. aureus methicillin-resistant (MRSA) CCM 4750 (ATCC 43300); assay: Antibacterial microdilution broth (EUCAST), MRSA; type: cell-based; conditions: Staphylococcus aureus; read after 24 h; read-out: MRSA MIC
# [10] = system: Trichophyton interdigitale CCM 8377 (ATCC 9533); assay: Antifungal microdilution broth (EUCAST), TI; type: cell-based; conditions: Trichophyton interdigitale, 72 h, read-out: TI MIC
# [11] = system: Staphylococcus aureus subsp. aureus CCM 4223 (ATCC 29213); assay: Antibacterial microdilution broth (EUCAST), SA; type: cell-based; conditions: Staphylococcus aureus; read after 24 h; read-out: SA MIC
# [12] = system: HepG2 human hepatocellular carcinoma cells; assay: In vitro HepG2 cytotoxicity (CellTiter 96); conditions: for IC50: Homo sapiens, HepG2, 24 h, read-out: HepG2 IC50, 24 h incubation, * limit = highest evaluated concentration (precipitation in medium), ** over the 1000 µM limit; for solubility in the testing medium (in words): HepG2 cell culture medium
# [13] = system: Mycobacterium tuberculosis H37Ra ITM-M006710 (ATCC 9431); assay: Microplate Alamar Blue Assay (MABA), Mtb H37Ra; type: cell-based; conditions: for MIC: Mycobacterium tuberculosis, 120 h, pH 6.6, MABA, Middlebrook 7H9 broth pH 6.6, resazurin after 120 h, read-out: Mtb H37Ra MIC
# [14] = system: M. aurum DSM 43999 (ATCC 23366); assay: Microplate Alamar Blue Assay (MABA), M. aurum; type: cell-based; conditions: Mycolicibacterium aurum, read-out: M. aurum MIC
# [15] = system: Enterococcus faecalis CCM 4224 (ATCC 29212); assay: Antibacterial microdilution broth (EUCAST), EF; type: cell-based; conditions: Enterococcus faecalis; read after 24 h; read-out: EF MIC
# [16] = system: Aspergillus flavus CCM 8363; assay: Antifungal microdilution broth (EUCAST), AFla; type: cell-based; conditions: Aspergillus flavus, CCM8363; read after 24 h; read-out: AFla MIC
# [17] = system: Mycobacterium smegmatis DSM 43465 (ATCC 607); assay: Microplate Alamar Blue Assay (MABA), M. smegmatis; type: cell-based; conditions: Mycolicibacterium smegmatis, read-out: M. smegmatis MIC
# [18] = system: Candida albicans CCM 8320 (ATCC 24433); assay: Antifungal microdilution broth (EUCAST), CA; type: cell-based; conditions: Candida albicans; read after 24 h; read-out: CA MIC
# [19] = system: Acinetobacter baumannii DSM 30007 (ATCC 19606); assay: Antibacterial microdilution broth (EUCAST), ACI; type: cell-based; conditions: Acinetobacter baumannii; read after 24 h; read-out: ACI MIC
# [20] = system: Candida tropicalis CCM 8264 (ATCC 750); assay: Antifungal microdilution broth (EUCAST), CT; type: cell-based; conditions: Candida tropicalis; read after 24 h; read-out: CT MIC
SMILES,MIC [1],MIC [2],MIC [3],MIC [4],MIC [5],MIC [6],MIC [7],melting point,KP MIC [8],MIC [9],MIC [10],MIC [11],IC50 [12],MIC [13],"MIC ([14]; MABA, resazurin after 72 h)",MIC [15],MIC [16],MIC [18],MIC [19],MIC [20],further results
Cc1cccc(C(=O)Nc2nccnc2C(N)=O)c1 [Compound 3],> 500 µM,> 500 µM,> 500 µM,> 500 µM,> 500 µM,> 500 µM,> 500 µM,226.9 to 228.8 °C,> 500 µM,> 500 µM,> 500 µM,> 500 µM,> 100 µM,62.5 µg/mL,≥ 250 µg/mL,> 500 µM,> 500 µM,> 500 µM,> 500 µM,> 500 µM,"MIC ([17]; MABA, resazurin after 48 h): ≥ 250 µg/mL"
CCc1ccc(C(=O)Nc2nccnc2C(N)=O)cc1 [Compound 5],> 250 µM,> 250 µM,> 250 µM,> 250 µM,> 250 µM,> 250 µM,> 250 µM,215.5 to 218.5 °C,> 250 µM,> 250 µM,> 250 µM,> 250 µM,> 100 µM,≥ 500 µg/mL,≥ 500 µg/mL,> 250 µM,> 250 µM,> 250 µM,> 250 µM,> 250 µM,"antimycobacterial activity (in words) ([13]; activity refers to Mtb H37Ra from the primary screening if not otherwise stated): no activity; MIC ([17]; MABA, resazurin after 48 h): ≥ 500 µg/mL"
CC(C)(C)c1ccc(C(=O)Nc2nccnc2C(N)=O)cc1 [Compound 6],> 125 µM,> 125 µM,> 125 µM,> 125 µM,> 125 µM,> 125 µM,> 125 µM,210 to 211.5 °C,> 125 µM,> 125 µM,> 125 µM,> 125 µM,114 µM,15.6 µg/mL,≥ 500 µg/mL,> 125 µM,> 125 µM,> 125 µM,> 125 µM,> 125 µM,MIC ([17]; 48 h): 15.6 µg/mL
COc1ccccc1C(=O)Nc1nccnc1C(N)=O [Compound 7],> 500 µM,> 500 µM,> 500 µM,> 500 µM,> 500 µM,> 500 µM,> 500 µM,205.4 to 206.7 °C,> 500 µM,> 500 µM,> 500 µM,> 500 µM,> 500 µM,125 µg/mL,≥ 500 µg/mL,> 500 µM,> 500 µM,> 500 µM,> 500 µM,> 500 µM,"MIC ([17]; MABA, resazurin after 48 h): 62.5 µg/mL"
COc1cccc(C(=O)Nc2nccnc2C(N)=O)c1 [Compound 8],> 500 µM,> 500 µM,> 500 µM,> 500 µM,> 500 µM,> 500 µM,> 500 µM,221 to 223 °C,> 500 µM,> 500 µM,> 500 µM,> 500 µM,> 100 µM,≥ 250 µg/mL,≥ 250 µg/mL,> 500 µM,> 500 µM,> 500 µM,> 500 µM,> 500 µM,"MIC ([17]; MABA, resazurin after 48 h): ≥ 250 µg/mL"
COc1ccc(C(=O)Nc2nccnc2C(N)=O)cc1 [Compound 9],> 125 µM,> 125 µM,> 125 µM,> 125 µM,> 125 µM,> 125 µM,> 125 µM,257 to 258.5 °C,> 125 µM,> 125 µM,> 125 µM,> 125 µM,> 250 µM,≥ 125 µg/mL,,> 125 µM,> 125 µM,> 125 µM,> 125 µM,> 125 µM,MIC ([14]; 72 h): ≥ 125 µg/mL; MIC ([17]; 48 h): ≥ 125 µg/mL
NC(=O)c1nccnc1NC(=O)c1ccccc1F [Compound 10],> 500 µM,> 500 µM,> 500 µM,> 500 µM,> 500 µM,> 500 µM,> 500 µM,211 to 213 °C,> 500 µM,> 500 µM,> 500 µM,> 500 µM,556 µM,250 µg/mL,≥ 500 µg/mL,> 500 µM,> 500 µM,> 500 µM,> 500 µM,> 500 µM,"MIC ([17]; MABA, resazurin after 48 h): ≥ 500 µg/mL"
NC(=O)c1nccnc1NC(=O)c1cccc(F)c1 [Compound 11],> 250 µM,> 250 µM,> 250 µM,> 250 µM,> 250 µM,> 250 µM,> 250 µM,234.1 to 236 °C,> 250 µM,> 250 µM,> 250 µM,> 250 µM,> 50 µM,≥ 125 µg/mL,,> 250 µM,> 250 µM,> 250 µM,> 250 µM,> 250 µM,solubility in the testing medium (in words) [12]: low solubility; MIC ([14]; 72 h): ≥ 125 µg/mL; MIC ([17]; 48 h): ≥ 125 µg/mL
NC(=O)c1nccnc1NC(=O)c1ccccc1Br [Compound 16],> 500 µM,> 500 µM,> 500 µM,> 500 µM,> 500 µM,> 500 µM,> 500 µM,223.1 to 225.1 °C,> 500 µM,> 500 µM,> 500 µM,> 500 µM,> 500 µM,≥ 250 µg/mL,≥ 250 µg/mL,> 500 µM,> 500 µM,> 500 µM,> 500 µM,> 500 µM,"MIC ([17]; MABA, resazurin after 48 h): ≥ 250 µg/mL"
NC(=O)c1nccnc1NC(=O)c1cccc(Br)c1 [Compound 17],> 125 µM,> 125 µM,> 125 µM,> 125 µM,> 125 µM,> 125 µM,> 125 µM,255 to 256 °C,> 125 µM,> 125 µM,> 125 µM,> 125 µM,> 5 µM,≥ 125 µg/mL,,> 125 µM,> 125 µM,> 125 µM,> 125 µM,> 125 µM,solubility in the testing medium (in words) [12]: low solubility; MIC ([14]; 72 h): ≥ 125 µg/mL; MIC ([17]; 48 h): ≥ 125 µg/mL
NC(=O)c1nccnc1NC(=O)c1cc(Cl)cc(Cl)c1 [Compound 19],> 500 µM,> 500 µM,> 500 µM,> 500 µM,> 500 µM,> 500 µM,> 500 µM,> 300 °C,> 500 µM,> 500 µM,> 500 µM,> 500 µM,> 250 µM,≥ 62.5 µg/mL,,> 500 µM,> 500 µM,> 500 µM,> 500 µM,> 500 µM,MIC ([14]; 72 h): ≥ 62.5 µg/mL; MIC ([17]; 48 h): ≥ 62.5 µg/mL
